In US10172911B2, “Methods of modulating erythropoiesis with arginine vasopressin receptor 1B molecules” (The United States of America, as represented by the …, priority 2013, dated 2019):
Entries after “also recorded” stand apart in the source; their conditions may differ.

Assays:
[1] = system: C57BL6 male mice; experiment: Hemorrhage anemia model, Alzet pump delivery; type: in vivo, mouse
Procedure: Mice were anesthetized with isoflurane. Twenty five percent of their calculated circulating blood volume (calculated based on Animal Research Advisory Committee Guidelines for survival bleeding of mice and rats, OACU, NIH) was drained from the retro-orbital plexus.
The reticulocyte ratio of peripheral blood was determined using the Retic-Count flow kit (BD Biosciences) according to the manufacturer's instructions. Hematocrit values were measured with an automated analyzer and microhematocrit tubes. The reticulocyte index was calculated as follows: reticulocyte ratio %/total gated cells×hematocrit/45.
To infuse vasopressin into the mice, AVP filled ALZET pumps were implanted subcutaneously on the dorsal aspect of the neck (5 ug/day, Alzet 1007D—7 days, 2002-14 days). Vasopressin was also given immediately and 6 hours later as a bolus injection (100 μg/kg). Alzet pumps were inserted subcutaneously. The dimensions and pump specification are: ALZET, (DURECT Corporation, Cupertino, Calif., USA) mini-osmotic pump models 1007D or 2002. The pumps deliver 0.5 μl/h of the desired substance for a for 2-week period. In some cases, erythropoietin antibody (100 μg/mice) was given before anesthesia with the corresponding control antibody. […] Following the initial hemorrhage blood samples were taken at 2, 4 and in some cases 6 days later to determine hematocrit and corrected reticulocyte values.

[2] = system: BM erythroid cells; experiment: Bone marrow erythroid populations after injection of AVP, AVPR1B agonist or EPO (flow cytometry, EdU); type: in vivo, mouse
Procedure: In vivo AVP-treated/hemorrhaged/control mice were IP injected with 10 μM/1000 g BW 5-ethynyl-2′-deoxyuridine (EdU: Life Technologies) for 2 hours. Single cell suspensions from the tibial and femoral bone marrows of mice (n=5 in each group) were prepared. After lysing the cells with ACK buffer, cells of the erythroid lineage were labeled with antibodies against TER-119 (BD Pharmingen) and CD71 (BD Pharmingen) or CD44 (BD Pharmingen) conjugated with FITC or PE fluorophores. After washing with FACS buffer, cells were fixed/permeabilized according to the manufacturer's recommendation (Life Technologies). Incorporated EdU molecules were visualized by a click reaction with Alexa Fluor 647-conjugated picolyl-azide and cell nuclei were stained with DAPI. Cell cycle characteristics of erythroid cells were detected with a Beckman-Coulter MoFlo Astrios flow cytometer.
For lineage negative, Sca-1 positive and c-kit positive (LSK) cell sorting, rat anti-mouse lineage antibodies (anti CD4, CD8, B220, Ter119, Gr-1, CD11b) were added to bone marrow cell suspension after ACK lysis and cells were depleted using anti-rat magnetic beads (Biomag anti rat IgG, Qiagen). Lineage negative cells were stained with c-kit PE/Cy5 and Sca-1-FITC antibodies and the double positive population was further enriched with anti-PE and anti-FITC magnetic beads (Miltenyi). LSK cells were sorted on a DAKO Cytomation MoFlo cell sorter. For LSK subpopulation sorting lineage depleted cells were stained for c-kit, Sca-1, CD48, CD150 and CD34 and 4 LSK subpopulations were sorted using the gating strategy described by Wilson et al. (34). Sorted cells from HSC (LSK, CD34^−, CD48^−, CD150^+), MPP1 (LSK, CD34^+, CD48^−, CD150^+), MPP2 (LSK, CD34^+, CD48^+, CD150^+) and MPP3/4 (LSK, CD34^+, CD48^+, CD150^−) subpopulations were plated in 1×PBS onto coated glass slides fixed with 2% PFA and immunostained for AVPR1B. Erythropoietic progenitors were sorted based on CD71 and Ter119 markers. All cells were sorted using a MoFlo Astrios cell sorter (Beckman Coulter). Competitive Repopulation Assay
The inventors determined that AVP induced a fast hematocrit response in severe anemia that is independent of EPO. AVP receptors in the HSPCs was confirmed and they next decided to examine how AVP affects the erythroid lineage cells (developmental stages) in the BM. […] In cell populations sorted as above, the presence of AVPR1B and EPO receptor (EPOR) mRNA using QPCR was also determined. […] AVPR2 mRNA was detected in all populations, whereas AVPR1A mRNA was barely detectable.

[3] = system: human CD34^+ cells; experiment: BrdU cell proliferation assay, human CD34+ cells; type: cell-based
Procedure: Sorted mouse bone marrow LSK cells (10000 cells/well) were plated in a 96 well plate in Stemspan serum free expansion medium ([…] Technologies, Vancouver, Canada) with Pen/Strep, and the following hematopoietic factors: 100 ng/ml TPO, 50 ng/ml FLT3L, 50 ng/ml IL-3 and SCF 100 ng/ml (Peprotech, Rocky Hill, N.J.). Cells were treated with […] (Sigma-Aldrich, St. Louis, Mo.). When using human CD34^+ cells (5000 cells/well), human SCF, TPO, FLT3L and G-CSF (Peprotech, each at 50-100 ng/ml) were added to the Stemspan medium. Cells were treated with 10^−8M-10^−14M AVP. After 24 hours, BrdU at a 1:1000 concentration was added to the cultures and incorporation of BrdU was measured using the Cell Proliferation ELISA BrdU kit (Roche, Mannheim, Germany) after another 24 hours of incubation.

[4] = system: mice; experiment: Single intraperitoneal AVP injection, bone marrow populations 16 hours later; type: in vivo, mouse; details: i.p. 100 μg/kg, bone marrow 16 hours later
Procedure: Short-term effect of a single intraperitoneal AVP injection: [Arg8]-Vasopressin (Ana-spec) (100 μg/kg body weight) together with 20 mg/kg body weight o-phenantroline (Sigma-Aldrich) or vehicle PBS with 20 mg/kg body weight o-phenantroline. 16 hours later bone marrow (two hind limbs) and spleen cells were obtained to study the distribu-tion of HSCs and multipotent progenitors (MPP) as well as intermediate lineage-com-mitted progenitors and the erythroid populations as described before (n=5/group) (Wilson et al. Cell 135, 1118-1129, doi:10.1016/j.cell.2008.10.048 (2008); Pronk, C. J. et al. Cell Stem Cell 1, 428-442, doi:10.1016/j.stem.2007.07.005 (2007); Weissman, I. L. Cell 100, 157-168 (2000). Serial AVP injections: Mice (n=8-9) were injected ip. 2 times/day with AVP 100 μg/kg body weight or PBS for 6.5 days. After day 6.5, mice were euthanized and the erythroid populations (CD71^+, Ter119^+) in spleen and bone marrow were analyzed (Cheshier, S. H. et al., Stem Cells Dev 16, 707-717, doi:10.1089/scd.2007.0017 (2007).

## NC(=O)CC[C@@H]1NC(=O)[C@H](Cc2ccccc2)NC(=O)[C@H](Cc2ccc(O)cc2)NC(=O)[C@@H](N)CSSC[C@@H](C(=O)N2CCC[C@H]2C(=O)N[C@@H](CCCN=C(N)N)C(=O)NCC(N)=O)NC(=O)[C@H](CC(N)=O)NC1=O [AVP, [Arg8]-Vasopressin]
[1]; 2 days post hemorrhage
  corrected reticulocyte numbers: significant increase; also recorded: had increased
  hematocrit: significant increase
[1]; 4 days post hemorrhage
  hematocrit: significantly higher hematocrit
[1]; anemia models, FACS with thiazol orange
  number of highly fluorescent (high intensity) reticulocytes: significantly increased
[1]; between days 2 and 4 after removal of 25% of blood volume
  hematocrits: also increased
[1]; hemorrhage, FIG. 9D
  recovery times: significantly improved recovery times
[2]; 16 hours after injection
  BM erythroid progenitors (Ter-119, CD 71 gated area): clear increase in progenitors
[2]; EdU, Annexin V and DAPI
  apoptosis in the late progenitor populations: significant decrease in apoptosis
[2]; after hemorrhage, AVP vs EPO
  effect on more matured erythroid populations: much more robust effect than EPO
[2]; bone marrow, flow cytometry
  numbers of more mature erythroid cells (polychromatic and orthochromatic erythroblasts/reticulocytes): significantly increased
[3]
  proliferation (BrdU) of human CD34+ cells / HSPCs: induced proliferation; also recorded: significantly increased the proliferation
[4]
  number of HSCs and early multipotent progenitors (MPPs): No difference was detected
  number of red blood cell producing progenitors and blast cells (CMP, MEP, proerythroblast, erythroblasts): statistically significant increase
